The source of these data is patent US11826347B2, “Anesthetic composition and method of anesthetizing the eye” (priority 2018, dated 2023).

For data set [1] the following is noted: in vivo; cited from earlier work.
The conditions of data set [2]: rabbit, in vivo.
Procedure: (§2) In the ocular biodistribution study, after a minimum of 72 hours following the completion of the ocular tolerability study, the twelve rabbits were re-assigned to Group 5 for the ocular biodistribution study. Group 6 was added and consisted of 3 naïve rabbits. Group 6 was included to evaluate the potential carryover effect of articaine over a 72 hour period post treatment. Group 5 and 6 animals were administered articaine at 8% and 12% w/v, respectively. Doses were administered via bilateral topical administration (two drops of 35 μL/eye). Group 5 animals were sacrificed at 10 minutes, and 1, 4 and 8 hours post treatment (N=3 at each time point). Group 6 rabbits were sacrificed at 24, 48 and 72 hours post treatment (N=1 at each time point). Just prior to sacrifice blood samples were collected from each animal. Animals were then euthanized and aqueous humor, conjunctivas (palpebral and bulbar), lens, cornea, vitreous humor, iris-ciliary body [ICB], optic nerve, lacrimal gland, retina, and choroid were collected.
(§3) The objectives of this study were to determine the tolerability of placebo and Articaine HCl ophthalmic solutions at concentrations of 4, 8, and 12% (w/v) following topical eye drop administration, and to determine the ocular pharmacokinetics and biodistribution of articaine and articainic acid following topical eye drop administration of 8% Articaine HCl ophthalmic solution.
The subject of data set [3] is Dutch Belted rabbits. The class given is in vivo. The following applies: articaine 4%, 8%, or 12%, bilateral topical, two drops of 35 μL/eye, observed 24 hours. The method, then:
Two subparts of one study were conducted on Dutch Belted rabbits, namely, an ocular tolerability study followed by an ocular biodistribution study.
(§1) In the ocular tolerability study, a total of twelve male Dutch Belted rabbits divided randomly into four groups, were administered a placebo of phosphate buffered saline (PBS) or articaine at 4%, 8%, or 12% respectively. […] Ophthalmic examinations were performed on dose tolerability animals (Groups 1 through 4) predose and at 5, 10, and 20 minutes, and at 1, 2, 4, and 24 hours post the second eye drop administration in each eye using the modified Hackett-McDonald Scoring System. Following the modified Hackett-McDonald Scoring, local anesthetic effect was monitored in each eye by Cochet-Bonnet esthesiometry predose and at approximately 5, 10, and 20 minutes, and 1 hour following administration of the second eye drop in each eye. […] Topical ocular administration of articaine provided an anesthetic effect out to 20 minutes postdose with no notable tolerability issues.

A further data set is described as follows: in vivo. The following applies: male, Dutch Belted, rabbit, topical or ocular.
Data set [4] has as its system Dutch Belted rabbits. Kind of data set: Local anesthetic effect by Cochet-Bonnet esthesiometry. The format is in vivo. The following applies: topical ocular administration, two drops of 35 μL/eye. The method, then: as §1
Data set [5] can be described thus: Ocular biodistribution / pharmacokinetics study.
Procedure: as §2, §3

Where a name gives a salt, the structure may show the parent alone.

Procedure for in vivo: as §2, §3

As a reminder, the Tmax is the time at which the peak concentration occurs. Broadly, the Cmax is the maximum level reached in the sampled fluid or tissue. `CCCNC(C)C(=O)Nc1c(C)csc1C(=O)OC` (centres unmarked) [articaine, 4-methyl-3 (2-[propylamino]proprioamido)-2-thiophenecarboxylic acid, methyl ester hydrochloride]: in data set [1], the “excreted as the metabolites” value is 89%, the protein binding entry was “highly protein bound” and the renally excreted unchanged entry is reported as “Five to ten”. In data set [2], the “systemic exposure, as indicated by plasma AUC” value is recorded as “minimal”. Moreover, the “tolerability / treatment related adverse effects” value with Dutch Belted rabbits [3] is on record as “well tolerated in all animals at concentrations up to 12% w/v”. In addition, in “in vivo”, the time to peak (Tmax) is 10 min. Further, the peak concentration (Cmax) in the data set “in vivo” (Plasma Cmax) came out at 457 ng/mL. The “anesthetic effect, time postdose” value in the data set on Dutch Belted rabbits [4] is 20 min.
On to Articainic acid, for which the “residual concentrations in ocular matrices” value in data set [5] (12% articaine topical, 24, 48, and 72 hours postdose) was “Low residual concentrations”. The “ratio of AUC0-last articainic acid over AUC0-last articaine” value in data set [5] (all other matrices) is given as less than 0.7; in data set [5] (cornea), “approximately 2”; in data set [5] (plasma), “approximately 2”. Also, the “T1/2 (half-life)” value in data set [5] (plasma) is reported as “approximately 1.5 hours”. Further, the “Plasma Cmax” value in data set [5] (plasma, 8% articaine topical, two drops of 35 μL/eye) came to 217 ng/mL.
